Experimental data published in patent US20240398737A1, “FUNCTIONALIZED LONG-CHAIN HYDROCARBON MONO- AND DI-CARBOXYLIC ACIDS AND DERIVATIVES THEREOF, AND THEIR USE FOR THE PREVENTION OR TREATMENT OF DISEASE” (Espervita Therapeutics, Inc., priority 2021, published 2024).

How the values were obtained:
human ACLY = human ACLY (Homo sapiens (Human), UniProt P53396); test: ATP-citrate lyase (ACLY) enzymatic assay (ADP-Glo); type: biochemical; design: key to Compound IC50 (M) ACLY: *: No detectable inhibition or compound activity; conditions: recombinant human ACLY; 10 concentrations from 300 μM; Runs 1-3
Chain of human ACLY (P53396 whole entry): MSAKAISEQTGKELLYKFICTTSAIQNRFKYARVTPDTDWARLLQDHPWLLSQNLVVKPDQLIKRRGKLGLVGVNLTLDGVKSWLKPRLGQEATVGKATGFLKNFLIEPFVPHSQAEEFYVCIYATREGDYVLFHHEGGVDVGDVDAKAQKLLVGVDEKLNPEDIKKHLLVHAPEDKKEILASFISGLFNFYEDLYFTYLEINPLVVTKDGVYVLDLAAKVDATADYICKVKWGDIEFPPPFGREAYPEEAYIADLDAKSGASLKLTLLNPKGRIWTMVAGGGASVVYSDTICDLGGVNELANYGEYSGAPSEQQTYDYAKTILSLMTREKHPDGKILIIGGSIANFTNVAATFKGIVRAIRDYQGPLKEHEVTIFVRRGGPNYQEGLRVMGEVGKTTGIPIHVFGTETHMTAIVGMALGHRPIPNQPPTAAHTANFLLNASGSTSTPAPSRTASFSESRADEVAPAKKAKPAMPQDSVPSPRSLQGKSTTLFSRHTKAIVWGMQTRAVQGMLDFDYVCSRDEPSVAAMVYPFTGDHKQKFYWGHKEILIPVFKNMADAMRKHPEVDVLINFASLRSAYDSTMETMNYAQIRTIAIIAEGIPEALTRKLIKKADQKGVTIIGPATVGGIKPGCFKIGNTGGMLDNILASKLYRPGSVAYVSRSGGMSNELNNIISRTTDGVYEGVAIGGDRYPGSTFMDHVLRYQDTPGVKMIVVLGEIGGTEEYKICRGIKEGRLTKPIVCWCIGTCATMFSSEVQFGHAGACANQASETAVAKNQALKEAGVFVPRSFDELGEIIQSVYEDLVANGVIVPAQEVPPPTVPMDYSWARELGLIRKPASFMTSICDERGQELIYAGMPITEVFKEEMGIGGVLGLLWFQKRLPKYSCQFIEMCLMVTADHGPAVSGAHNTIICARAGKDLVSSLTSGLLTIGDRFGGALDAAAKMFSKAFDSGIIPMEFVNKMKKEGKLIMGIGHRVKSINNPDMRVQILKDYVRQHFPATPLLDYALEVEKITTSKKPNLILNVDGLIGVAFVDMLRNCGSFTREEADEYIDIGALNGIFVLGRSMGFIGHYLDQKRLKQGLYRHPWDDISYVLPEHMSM
Experimental: ATP citrate lyase was obtained from Sino Biological Inc. Cat #11769-H07B, Lot #LC08DE1701. It was prepared from a DNA sequence encoding the human ACLY (P53396) (Met 1-Met 1101) expressed in Baculovirus-Insect Cells, with a polyhistidine tag at the N-terminus. The recombinant human ACLY consists of 1120 amino acids and has a calculated molecular mass of 123 kDa. It migrates as an approximately 110 kDa band in SDS-PAGE under reducing conditions. The enzyme came as a lyophilized powder in sterile 20 mM Tris, 500 mM NaCl, pH 8.0, 10% glycine. Normally 5%-8% trehalose and mannitol are added as protectants before lyophilization. The recombinant human ACLY from Sino Biological was formulated in 45 mM Tris-HCl, pH 8.0, 124 mM NaCl, 2.4 mM KCl, 18 mM glutathione, 10% glycerol, and 3 mM DTT.
To detect ADP produced from ACL assay, the ADP-Glo™ assay format from Promega, Madison, WI, was used, to detect the conversion of ATP to ADP. […] This assay is performed in two steps: i) after the ACL-mediated enzymatic reaction that utilizes ATP and produces ADP, ADP-Glo™ Reagent is added to terminate the kinase reaction and deplete the remaining ATP, and ii) the Kinase Detection Reagent is added to convert ADP to ATP and allow the newly synthesized ATP to be measured using a luciferase/luciferin reaction. The light generated, measured in a luminometer, correlates to the amount of ADP generated in the ACL assay, which is indicative of ACL activity.
Data represent nM or μM ADP produced, % Activity (relative to no inhibitor controls), and curve fits were performed by GraphPad Prism software. The IC50 concentration-response curves were generated for ADPGlo™ using recombinant human ACL from Sino Biologicals Inc.

[1] = Synthesis of CoA derivatives in rat liver microsomes (LCMS detection); type: in vitro ADME; conditions: 1 mM substrate, 30 min sample
Experimental: Reaction products were eluted using the gradient shown below: […]
Formation and detection of the Co-A derivatives of Compounds 1-32, 1-61, I-1 or III-1 in rat liver microsomes: 1 mM of each compound (Compounds I-32, I-61, I-1 or III-1) or palmitic acid (control) were used as substrate in the rat microsomal preparation for 0 and 30 min and extracted as described above. […] Further confirmation was obtained by exposing the compound to a collision energy causing the characteristic neutral loss of 3′-phosphonucleoside diphosphate (507 Da) producing the fragment ion 499.3 m/z. There was no evidence of the CoA derivative in the time 0 min sample.

PIM3 = PIM3 (Homo sapiens (Human), UniProt Q86V86); test: Wild type kinase screen: PIM3; type: biochemical; conditions: compound at 10 μM, 10 μM ATP, Data 1 and Data 2 duplicates
Human ACC2 = Human ACC2 (Homo sapiens (Human), UniProt O00763); test: ACC2 enzymatic assay (ADP-Glo); type: biochemical; design: key to Compound IC50 (M) ACC2: *: No detectable inhibition or compound activity; conditions: recombinant human ACC2 1 nM; 10 concentrations from 300 μM; Runs 1-3
Chain of Human ACC2 (O00763 whole entry): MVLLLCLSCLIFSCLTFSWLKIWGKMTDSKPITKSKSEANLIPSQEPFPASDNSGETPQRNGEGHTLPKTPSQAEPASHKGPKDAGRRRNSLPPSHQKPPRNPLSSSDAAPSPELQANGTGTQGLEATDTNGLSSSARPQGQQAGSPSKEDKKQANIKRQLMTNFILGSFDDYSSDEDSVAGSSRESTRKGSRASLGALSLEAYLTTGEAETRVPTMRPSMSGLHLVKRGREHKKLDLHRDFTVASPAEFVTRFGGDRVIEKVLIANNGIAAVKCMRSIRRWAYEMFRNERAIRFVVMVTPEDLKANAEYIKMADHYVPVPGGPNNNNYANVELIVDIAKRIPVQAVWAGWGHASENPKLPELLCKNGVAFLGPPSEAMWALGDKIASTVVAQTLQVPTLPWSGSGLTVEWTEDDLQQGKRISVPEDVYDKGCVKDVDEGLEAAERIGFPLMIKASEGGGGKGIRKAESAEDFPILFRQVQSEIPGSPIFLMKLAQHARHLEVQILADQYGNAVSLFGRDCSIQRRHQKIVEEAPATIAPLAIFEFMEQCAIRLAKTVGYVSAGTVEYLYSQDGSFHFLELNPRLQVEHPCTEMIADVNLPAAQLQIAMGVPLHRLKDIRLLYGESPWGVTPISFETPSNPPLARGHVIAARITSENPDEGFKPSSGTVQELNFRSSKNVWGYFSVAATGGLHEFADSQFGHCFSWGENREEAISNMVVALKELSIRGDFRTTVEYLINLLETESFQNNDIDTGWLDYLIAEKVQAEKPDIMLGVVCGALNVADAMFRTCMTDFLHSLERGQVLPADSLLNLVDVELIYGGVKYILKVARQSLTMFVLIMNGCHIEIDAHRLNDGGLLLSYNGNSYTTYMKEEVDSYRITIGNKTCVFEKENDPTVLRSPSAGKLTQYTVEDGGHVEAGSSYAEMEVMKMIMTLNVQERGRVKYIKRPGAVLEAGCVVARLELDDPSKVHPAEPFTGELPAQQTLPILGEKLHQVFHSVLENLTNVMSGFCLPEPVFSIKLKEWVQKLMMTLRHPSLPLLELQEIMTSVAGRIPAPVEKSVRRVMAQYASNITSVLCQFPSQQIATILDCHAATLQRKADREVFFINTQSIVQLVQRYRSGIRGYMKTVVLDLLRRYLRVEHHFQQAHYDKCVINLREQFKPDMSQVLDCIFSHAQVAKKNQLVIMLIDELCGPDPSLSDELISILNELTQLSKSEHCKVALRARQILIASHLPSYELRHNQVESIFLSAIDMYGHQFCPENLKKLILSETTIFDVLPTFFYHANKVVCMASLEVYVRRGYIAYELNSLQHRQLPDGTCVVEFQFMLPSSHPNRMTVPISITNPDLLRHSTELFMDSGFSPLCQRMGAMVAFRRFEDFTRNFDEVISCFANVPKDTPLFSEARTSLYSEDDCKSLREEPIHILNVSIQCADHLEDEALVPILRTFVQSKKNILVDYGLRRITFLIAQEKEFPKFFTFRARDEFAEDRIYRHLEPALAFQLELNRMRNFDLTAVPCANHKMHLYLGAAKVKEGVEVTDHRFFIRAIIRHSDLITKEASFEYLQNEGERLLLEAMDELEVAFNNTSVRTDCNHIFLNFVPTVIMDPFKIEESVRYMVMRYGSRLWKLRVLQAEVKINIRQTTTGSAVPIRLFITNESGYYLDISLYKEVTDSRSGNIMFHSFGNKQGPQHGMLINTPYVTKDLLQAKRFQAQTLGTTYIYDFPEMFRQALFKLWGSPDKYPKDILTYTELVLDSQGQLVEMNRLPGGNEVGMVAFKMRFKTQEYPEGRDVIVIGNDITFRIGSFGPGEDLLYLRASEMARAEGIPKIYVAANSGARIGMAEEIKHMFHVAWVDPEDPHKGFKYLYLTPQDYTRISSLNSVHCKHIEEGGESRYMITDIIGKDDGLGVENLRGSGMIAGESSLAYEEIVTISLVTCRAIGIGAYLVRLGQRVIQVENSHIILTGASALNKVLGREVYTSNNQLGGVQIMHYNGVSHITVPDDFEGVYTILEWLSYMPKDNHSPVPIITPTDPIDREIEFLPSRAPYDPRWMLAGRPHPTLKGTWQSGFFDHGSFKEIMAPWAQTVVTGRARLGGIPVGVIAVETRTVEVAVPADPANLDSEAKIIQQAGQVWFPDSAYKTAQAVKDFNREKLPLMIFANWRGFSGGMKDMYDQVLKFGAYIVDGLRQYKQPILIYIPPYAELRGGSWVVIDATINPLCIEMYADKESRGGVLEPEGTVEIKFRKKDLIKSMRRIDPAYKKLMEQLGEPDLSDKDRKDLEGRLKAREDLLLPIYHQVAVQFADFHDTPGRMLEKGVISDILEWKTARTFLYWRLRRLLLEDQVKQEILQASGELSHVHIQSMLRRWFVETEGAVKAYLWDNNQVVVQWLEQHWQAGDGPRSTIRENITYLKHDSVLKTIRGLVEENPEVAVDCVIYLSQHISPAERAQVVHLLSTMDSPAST
Experimental: Human ACC1 (Cat #50202 Lot #120830) and ACC2 (Cat #50201 Lot #160217) were obtained from BPS Biosciences, San Diego, CA 92121. Human ACC1 had C-terminal flag and His-tags with a MW of 270 KDa after purification from Baculovirus infected Sf9 cell expression system and came as a solution in 50 mM Tris-HCl, pH 8.0, 500 mM NaCl, 10% glycerol, 1 mM DTT, 100 μg/ml FLAG peptide with 70% purity. The stock concentration was 0.25 mg/ml corresponding to 0.926 μM. Human ACC2 was also purified from Baculovirus infected Sf9 expression system. […] The stock concentration was 0.1 mg/ml corresponding to 0.36 μM. The assay buffer for measuring the activity of ACC contained: 30 mM HEPES (pH 7.4), 2 mM MgCl2, 0.01% Brij35, 2 mM DTT, 1% DMSO (solvent for compound). For ACC1 and ACC2 assays, the following concentrations of substrate and cofactors were used: 12 mM NaHCO3, 10 μM acetyl CoA, 10 μM ATP, and 2 mM K-citrate. The recombinant human enzyme was used at 5 nM for ACC1 and 1 nM for ACC2. In brief, enzyme alone in the above buffer without substrate was used for background. All test materials were dissolved in 100% DMSO using acoustic technology (Echo550). The prepared solution was preincubated for 15 min followed by the addition of 5 μL/well of ADP standard. ATP was then added to start the reaction. The assay contents were spun and briefly shaken followed by incubation at room temperature for 1 h. At the end of completion of assay, 5 μL of ADP-Glo was added to each well to stop the reaction. The contents were mixed, spun and incubated at room temperature for 40 min followed by the addition of 10 μL/well of ADP detection reagent. The contents were spun, mixed and covered with plastic to measure luminescence. […] The light generated, measured in a luminometer, correlates to the amount of ADP generated in the ACC assay, which is indicative of ACC activity.
The enzyme concentrations for ACC1 and ACC2 were 5 nM and 1 nM, respectively.
Data represent nM or μM ADP produced, % Activity (relative to no inhibitor controls), and curve fits were performed by GraphPad Prism software. The IC50 concentration-response curves were generated for both the ACC1 and ACC2 assays using recombinant human ACC.

SMILES | Compound IC50 (M) ACLY (human ACLY) | Formation of the CoA derivative (LCMS detection, fragmentation confirmation) [1] | % Enzyme Activity (relative to DMSO controls) (PIM3) | Compound IC50 (M) ACC2 (Human ACC2)
CC(C)(CCCCc1ccc(CCCCC(C)(C)C(=O)O)cc1)C(=O)O [Compound I-1, 6-[4-(5-carboxy-5-methylhexyl)-phenyl]-2,2-dimethylhexanoic acid] | * | detected | 83% | *
CC(C)(CCCCc1cccc(CCCCC(C)(C)C(=O)O)c1)C(=O)O [Compound I-32, 6-[3-(5-carboxy-5-methylhexyl)-phenyl]-2,2-dimethylhexanoic acid] | * | detected | 86.73% | *
